In test [1] the target is GST-tagged K-Ras mutant / His-tagged hSOS1 (Homo sapiens, UniProt P01116). Nature of the test: HTRF assay, K-Ras mutant / SOS1 interaction. As to conditions: read-out: IC50 against mutant Kras. Type of test: binding. The method in brief:
(§1)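 Inhibition of wildtype or mutant K-Ras binding to hSOS1 is measured by FRET between antibody-bound Eu donor and XL665 acceptor. Protein levels are matched to the IC50 range under study. The 665/620 nm signal after ≥10 min yields IC50.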

The next test has as its target T1, wildtype Kras / hSOS1 (Homo sapiens, UniProt P01116).
T1 construct: made in house; host or cells: E. coli BL21 (DE3)
Description: HTRF assay, wildtype Kras / SOS1 interaction. Type of test: binding. Conditions: read-out: IC50 against wildtype Kras. The method in brief:
as §1

[2] abbreviates: compound nos. 201-213, general methodology of example 5.

For 19 molecules, IC50 results are on record in patent US20240254129A1, “HETEROCYCLIC COMPOUNDS AND USES THEREOF” (Kumquat Biosciences Inc., priority 2021, published 2024).

Like-named read-outs stand apart in the source and are kept apart here.

T1 sequence (P01116 1-188 isoform P01116-2): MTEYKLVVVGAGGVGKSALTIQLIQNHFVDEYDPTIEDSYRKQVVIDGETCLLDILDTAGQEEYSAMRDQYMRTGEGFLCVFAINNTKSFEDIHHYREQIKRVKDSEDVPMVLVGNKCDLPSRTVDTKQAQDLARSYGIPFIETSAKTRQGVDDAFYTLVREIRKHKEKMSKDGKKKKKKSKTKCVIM
Chain of GST-tagged K-Ras mutant / His-tagged hSOS1 (P01116 whole entry G12D, form open): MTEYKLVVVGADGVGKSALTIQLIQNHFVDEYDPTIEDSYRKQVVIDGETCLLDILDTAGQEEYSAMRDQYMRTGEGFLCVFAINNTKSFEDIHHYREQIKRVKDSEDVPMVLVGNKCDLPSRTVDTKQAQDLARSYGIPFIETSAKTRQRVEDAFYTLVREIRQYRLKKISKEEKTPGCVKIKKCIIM

Regarding `Nc1nc2c(-c3c(Cl)cc4c(N5C[C@H]6CC[C@@H](C5)N6)nc(OCC5(CN6CCCC6)CC5)nc4c3F)ccc(F)c2s1` [Compound 211, 4-(4-((1R,5S)-3,8-diaza-bicyclo[3.2.1]octan-3-yl)-6-chloro-8-fluoro-2-((1-(pyrrolidin-1-ylmethyl)-cyclopropyl)methoxy)quin-azolin-7-yl)-7-fluorobenzo-[d]thiazol-2-amine], the IC50 (in test [1] (setting [2]); at wildtype Kras / hSOS1 (setting [2])) was under 1500 nM throughout.
Consider `Nc1nc2c(-c3c(Cl)cc4c(N5C[C@H]6CC[C@@H](C5)N6)nc(OCC5(CN6CCCC6)CC5)nc4c3F)cccc2o1` [Compound 212, 4-(4-((1R,5S)-3,8-diaza-bicyclo[3.2.1]octan-3-yl)-6-chloro-8-fluoro-2-((1-(pyrrolidin-1-ylmethyl)-cyclopropyl)methoxy)quin-azolin-7-yl)benzo[d]oxazol-2-amine], for which the 50% inhibitory concentration (IC50) (in test [1] (setting [2]); at wildtype Kras / hSOS1 (setting [2])) was under 1500 nM in each case.
As for `Nc1nc2c(-c3c(Cl)cc4c(N5CC6CCC(C5)NC6)nc(OC[C@@]56CCCN5C[C@H](F)C6)nc4c3F)ccc(F)c2s1` (stereo partly drawn) [Compound 213, 4-(4-(3,6-diazabicyclo-[3.2.2]nonan-3-yl)-6-chloro-8-fluoro-2-(((2R,7aS)-2-fluorotetrahydro-1H-pyrrolizin-7a(5H)-yl)meth-oxy)quinazolin-7-yl)-7-fluorobenzo[d]thiazol-2-amine], the IC50 (in test [1] (setting [2]); at wildtype Kras / hSOS1 (setting [2])) was under 1500 nM throughout.
In the case of `Nc1nc2c(-c3c(Cl)cc4c(N5[C@@H]6CC[C@H]5CNC6)nc(OC[C@@]56CCCN5C[C@H](F)C6)nc4c3F)ccc(F)c2s1` [Compound 301, 4-(4-((1R,5S)-3,8-diaza-bicyclo[3.2.1]octan-8-yl)-6-chloro-8-fluoro-2-(((2R,7aS)-2-fluorotetra-hydro-1H-pyrrolizin-7a(5H)-yl)methoxy)quinazolin-7-yl)-7-fluorobenzo[d]thiazol-2-amine], the IC50 (in test [1] (compound nos. 301-306); at wildtype Kras / hSOS1 (compound nos. 301-306)) was under 1500 nM throughout.
As for `Nc1nc2c(-c3c(Cl)cc4c(N5C6CCCC5CNC6)nc(OC[C@@]56CCCN5C[C@H](F)C6)nc4c3F)ccc(F)c2s1` [Compound 302, 4-(4-(3,9-diazabicyclo-[3.3.1]nonan-9-yl)-6-chloro-8-fluoro-2-(((2R,7aS)-2-fluorotetrahydro-1H-pyrrolizin-7a(5H)-yl)meth-oxy)quinazolin-7-yl)-7-fluorobenzo[d]thiazol-2-amine], the IC50 (in test [1] (compound nos. 301-306); on wildtype Kras / hSOS1 (compound nos. 301-306)) was under 1500 nM in each case.
Consider `Nc1nc2c(-c3c(Cl)cc4c(N5[C@@H]6CC[C@H]5CC(F)(F)C6)nc(OC[C@@]56CCCN5C[C@H](F)C6)nc4c3F)ccc(F)c2s1` [Compound 303, 4-(6-chloro-4-((1R,5S)-3,3-difluoro-8-azabicyclo[3.2.1]-octan-8-yl)-8-fluoro-2-(((2R,7aS)-2-fluorotetra-hydro-1H-pyrrolizin-7a(5H)-yl)methoxy)quinazolin-7-yl)-7-fluorobenzo[d]thiazol-2-amine], for which the IC50 is over 1500 nM in test [1] (compound nos. 301-306) and under 1500 nM on wildtype Kras / hSOS1 (compound nos. 301-306).
The corresponding values for `Nc1nc2c(-c3c(Cl)cc4c(N5[C@@H]6CC[C@H]5CC(F)C6)nc(OC[C@@]56CCCN5C[C@H](F)C6)nc4c3F)ccc(F)c2s1` (stereo partly drawn) [Compound 304, 4-(6-chloro-8-fluoro-4-((1R,3S,5S)-3-fluoro-8-azabicyclo[3.2.1]octan-8-yl)-2-(((2R,7aS)-2-fluoro-tetrahydro-1H-pyrrolizin-7a(5H)-yl)methoxy)quin-azolin-7-yl)-7-fluorobenzo-[d]thiazol-2-amine] are under 1500 nM and under 1500 nM.
In the same order, the values of `Nc1nc2c(-c3c(Cl)cc4c(N5[C@@H]6CCC[C@H]5C[C@H](O)C6)nc(OC[C@@]56CCCN5C[C@H](F)C6)nc4c3F)ccc(F)c2s1` [Compound 305, (1R,3R,5S)-9-(7-(2-amino-7-fluorobenzo[d]thiazol-4-yl)-6-chloro-8-fluoro-2-(((2R,7aS)-2-fluorotetra-hydro-1H-pyrrolizin-7a(5H)-yl)methoxy)quinazolin-4-yl)-9-azabicyclo[3.3.1]-nonan-3-ol] are under 1500 nM and under 1500 nM.
The corresponding values for `CN1CCC[C@H]1COc1nc(N2[C@@H]3CC[C@H]2CNC3)c2cc(Cl)c(-c3cccc4sc(N)nc34)c(F)c2n1` [Compound 306, 4-(4-((1R,5S)-3,8-diaza-bicyclo[3.2.1]octan-8-yl)-6-chloro-8-fluoro-2-(((S)-1-methylpyrrolidin-2-yl)meth-oxy)quinazolin-7-yl)benzo-[d]thiazol-2-amine] are under 1500 nM and under 1500 nM.
Regarding `N#CC1C2CCC1CN(c1nc(OC[C@@]34CCCN3C[C@H](F)C4)nc3c(F)c(-c4ccc(F)c5sc(N)nc45)c(Cl)cc13)C2` (stereo partly drawn) [Compound 403, (1R,5S,8S)-3-(7-(2-amino-7-fluorobenzo[d]thiazol-4-yl)-6-chloro-8-fluoro-2-(((2R,7aS)-2-fluorotetra-hydro-1H-pyrrolizin-7a(5H)-yl)methoxy)quinazolin-4-yl)-3-azabicyclo[3.2.1]-octane-8-carbonitrile], the IC50 (in test [1] (compound nos. 401-703); on wildtype Kras / hSOS1 (compound nos. 401-703)) was under 500 nM throughout.
As to `Nc1nc2c(-c3cc4c(=O)n(CCN5CCCC5)nc(N5C[C@H]6CC[C@@H](C5)N6)c4cc3Cl)ccc(F)c2s1` [Compound 404, 7-(2-amino-7-fluorobenzo[d]thiazol-4-yl)-4-((1R,5S)-3,8-diazabicyclo[3.2.1]octan-3-yl)-6-chloro-2-(2-(pyrrolidin-1-yl)ethyl)phthalazin-1(2H)-one], the results for the IC50 (in test [1] (compound nos. 401-703); at wildtype Kras / hSOS1 (compound nos. 401-703)) were over 500 nM and under 500 nM, respectively.
In the same order, the values of `N#Cc1c(N)sc2c(F)ccc(-c3c(Cl)cc4c(N5CCNCC(F)(F)C5)nc(OC[C@@]56CCCN5C[C@H](F)C6)nc4c3F)c12` [Compound 405, 2-amino-4-(6-chloro-4-(6,6-difluoro-1,4-diazepan-1-yl)-8-fluoro-2-(((2R,7aS)-2-fluorotetrahydro-1H-pyr-rolizin-7a(5H)-yl)methoxy)-quinazolin-7-yl)-7-fluoro-benzo[b]thiophene-3-carbonitrile] are over 500 nM and under 500 nM.
In the same order, the values of `NCC1C2CCC1CN(c1nc(OCC34CCCN3CCC4)nc3c(F)c(-c4ccc(F)c5sc(N)nc45)c(Cl)cc13)C2` [Compound 406, 4-(4-((1R,5S,8r)-8-(amino-methyl)-3-azabicyclo[3.2.1]-octan-3-yl)-6-chloro-8-fluoro-2-((tetrahydro-1H-pyrrolizin-7a(5H)-yl)meth-oxy)quinazolin-7-yl)-7-fluorobenzo[d]thiazol-2-amine] are under 500 nM and under 500 nM.
The corresponding values for `Nc1nc2c(-c3c(Cl)cc4c(N5CCCC(O)CC5)nc(OC[C@@]56CCCN5C[C@H](F)C6)nc4c3F)ccc(F)c2s1` (stereo partly drawn) [Compound 407, 1-(7-(2-amino-7-fluoro-benzo[d]thiazol-4-yl)-6-chloro-8-fluoro-2-(((2R,7aS)-2-fluorotetrahydro-1H-pyr-rolizin-7a(5H)-yl)methoxy)-quinazolin-4-yl)azepan-4-ol] are under 500 nM and under 500 nM.
Consider `Nc1nc2c(-c3ccc4c(N5C[C@H]6CCNCC[C@H]6C5)nc(OC[C@@]56CCCN5C[C@H](F)C6)nc4c3F)ccc(F)c2s1` [Compound 408, 7-fluoro-4-(8-fluoro-2-(((2R,7aS)-2-fluorotetra-hydro-1H-pyrrolizin-7a(5H)-yl)methoxy)-4-((3aR,8aS)-octahydropyrrolo[3,4-d]-azepin-2(1H)-yl)quinazolin-7-yl)benzo[d]thiazol-2-amine], for which the IC50 is over 500 nM in test [1] (compound nos. 401-703) and under 500 nM at wildtype Kras / hSOS1 (compound nos. 401-703).
In the same order, the values of `Oc1cc(-c2c(Cl)cc3c(N4CC5CCC(C4)N5)nc(OCC45CCCC4CCC5)nc3c2F)c2ccccc2c1` (centres unmarked) [Compound 410, 4-(4-(3,8-diazabicyclo-[3.2.1]octan-3-yl)-6-chloro-8-fluoro-2-((hexahydro-pentalen-3a(1H)-yl)meth-oxy)quinazolin-7-yl)naph-thalen-2-ol] are over 500 nM and under 500 nM.
In the same order, the values of `Nc1nc2c(-c3c(Cl)cc4c(N5CC6CCC(C5)N6)nc(OCC5(CN6CCC(F)(F)C6)CC5)nc4c3F)ccc(F)c2s1` [Compound 411, 4-(4-(3,8-diazabicyclo-[3.2.1]octan-3-yl)-6-chloro-2-((1-((3,3-difluoropyrrol-idin-1-yl)methyl)cycloprop-yl)methoxy)-8-fluoroquin-azolin-7-yl)-7-fluorobenzo-[d]thiazol-2-amine] are over 500 nM and under 500 nM.
The corresponding values for `Nc1nc2c(-c3ccc4c(N5CC6CCC(C5)N6)nc(OCC56CCCN5CCC6)nc4n3)ccc(F)c2s1` [Compound 412, 4-(4-(3,8-diazabicyclo-[3.2.1]octan-3-yl)-2-((tetra-hydro-1H-pyrrolizin-7a(5H)-yl)methoxy)pyrido[2,3-d]-pyrimidin-7-yl)-7-fluoro-benzo[d]thiazol-2-amine] are over 500 nM and under 500 nM.
As to `Nc1nc2c(-c3c(Cl)cc4c(N5C[C@H]6CC[C@@H](C5)[C@@H]6N)nc(OCC56CCCN5CCC6)nc4c3F)ccc(F)c2s1` [Compound 413, 4-(4-((1R,5S,8s)-8-amino-3-azabicyclo[3.2.1]octan-3-yl)-6-chloro-8-fluoro-2-((tetra-hydro-1H-pyrrolizin-7a(5H)-yl)methoxy)quinazolin-7-yl)-7-fluorobenzo[d]thiazol-2-amine], the IC50 (in test [1] (compound nos. 401-703); at wildtype Kras / hSOS1 (compound nos. 401-703)) was under 500 nM throughout.
